Measurements reported in patent US20250235437A1, “PROTEOLYSIS TARGETING CHIMERA (PROTAC) MOLECULE FOR DEGRADATION OF ENL AND CANCER THERAPY” (Baylor College of Medicine, priority 2022, published 2025).

Experiments:
ENL [1] = molecular target: T1, ENL (Homo sapiens, UniProt Q03111); experiment: ENL degradation in MV4;11 cells (Western blot); type: cell-based
T1 construct: tested whether the compounds degrade ENL and AF9 in MV4;11 leukemia cells; endogenous in cells; host or cells: MV4;11; Molm-13
T1 sequence (Q03111 1-559): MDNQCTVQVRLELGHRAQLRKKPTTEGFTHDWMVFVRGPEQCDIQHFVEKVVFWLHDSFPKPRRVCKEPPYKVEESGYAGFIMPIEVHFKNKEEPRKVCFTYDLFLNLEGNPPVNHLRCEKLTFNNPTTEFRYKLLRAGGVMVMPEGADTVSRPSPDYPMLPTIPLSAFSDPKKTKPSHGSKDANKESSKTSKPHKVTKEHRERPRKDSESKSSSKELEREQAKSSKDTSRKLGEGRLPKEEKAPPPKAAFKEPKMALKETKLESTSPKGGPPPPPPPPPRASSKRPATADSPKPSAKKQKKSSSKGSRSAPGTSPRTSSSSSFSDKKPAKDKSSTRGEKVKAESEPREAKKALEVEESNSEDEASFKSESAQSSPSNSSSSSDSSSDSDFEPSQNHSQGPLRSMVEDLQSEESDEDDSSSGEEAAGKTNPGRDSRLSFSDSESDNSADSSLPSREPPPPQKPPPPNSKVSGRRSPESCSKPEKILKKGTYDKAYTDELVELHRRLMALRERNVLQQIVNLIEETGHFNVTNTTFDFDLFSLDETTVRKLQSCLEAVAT
Experimental: (§1) Next, Applicant tested whether the compounds degrade ENL and AF9 in MV4;11 leukemia cells with the .MLL1-AF4 oncogene. Upon compound treatment for 24 h, the cells were washed, lysed, and the lysates subjected to SDS-PAGE (sodium dodecyl sulphate-polyacrylamide gel electrophoresis) followed by detection with Western blot.

H3K79 methylation = experiment: Nuclear H3K79 methylation in MV4;11 cells, 4 days; type: cell-based
Description: (§2) Applicant further investigated how compound 1 affects ENL, AF9 and other proteins of SEC in the cytoplasmic and nuclear compartments, the latter of which are more relevant to the functions of these transcription cofactors. […] Upon treatment of MV4;11 cells with these compounds for 4 days, cytoplasmic and nuclear proteins were separated and subjected to SDS-PAGE/Western blot.

ENL [2] = molecular target: T1, ENL; experiment: ChIP-qPCR, ENL at Myc and HoxA9 gene promoters; type: cell-based; details: 500 nM
Description: (§3) Chromatin immunoprecipitation (ChIP) followed by qPCR was used to further probe the activity of compound 1 in the gene promoters of Myc and HoxA9, two characteristic MLL1 target genes.

HoxA11 and HoxA13 = experiment: mENL-driven HoxA11 and HoxA13 expression in HEK293T cells; type: cell-based; parameters: dose or concentration left out as unconfirmed; details: 24 h incubation
Description: Next, Applicant investigated how mENL degradation affect expression of HoxA11 and HoxA13 in this cell model.

Myc = Myc expression in RPMI-8226 cells; type: cell-based; details: 4 days
[3] = In vivo toxicity in C57BL/6 mice; details: 30 mg/kg/day for 13 days
Experimental: In vivo antitumor activity of compound 1 was evaluated in a commonly used mouse model of Molm-13 leukemia. First, in vivo toxicity was assessed in C57BL/6 mice.

ENL [4] = molecular target: T1, ENL; experiment: ENL degradation in Molm-13 cells (Western blot); type: cell-based; details: Molm-13 cells (MLL1-AF9), 24 h
Experimental: as §1
In addition, compound 1 efficiently degraded ENL in another MLL1-r leukemia Molm-13 cells (with MLL1-AF9) with DC50 of 47 nM and Dmax of ˜88% (FIG. 3E). Moreover, significant ENL degradation can be detected in 2 h and depletion occurred within 24 h (FIG. 3F).

mutant ENL (mENL) = molecular target: T2, mutant ENL (mENL) (Homo sapiens, UniProt Q03111, INS117NHL); experiment: Degradation of mutant and WT ENL in transfected HEK293T cells; type: cell-based
T2 construct: expressed in transfected cells; host or cells: HEK293T
T2 sequence (Q03111 with tags, fused parts or gaps INS117NHL): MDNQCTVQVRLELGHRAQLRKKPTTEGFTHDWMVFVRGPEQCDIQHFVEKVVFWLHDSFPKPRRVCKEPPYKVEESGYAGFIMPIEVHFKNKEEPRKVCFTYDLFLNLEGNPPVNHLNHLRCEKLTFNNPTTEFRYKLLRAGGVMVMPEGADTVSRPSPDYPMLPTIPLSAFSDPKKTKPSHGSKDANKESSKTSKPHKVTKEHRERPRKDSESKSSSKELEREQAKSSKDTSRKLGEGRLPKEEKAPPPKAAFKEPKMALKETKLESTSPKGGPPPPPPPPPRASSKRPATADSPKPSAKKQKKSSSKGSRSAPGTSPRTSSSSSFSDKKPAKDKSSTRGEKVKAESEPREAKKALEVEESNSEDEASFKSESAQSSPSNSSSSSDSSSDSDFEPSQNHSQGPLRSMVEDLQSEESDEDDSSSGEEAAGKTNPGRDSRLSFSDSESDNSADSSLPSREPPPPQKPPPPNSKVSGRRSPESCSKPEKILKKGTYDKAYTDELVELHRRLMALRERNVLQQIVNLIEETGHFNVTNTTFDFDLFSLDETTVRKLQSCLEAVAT
T2 sequence (Q96SW2 whole entry partner): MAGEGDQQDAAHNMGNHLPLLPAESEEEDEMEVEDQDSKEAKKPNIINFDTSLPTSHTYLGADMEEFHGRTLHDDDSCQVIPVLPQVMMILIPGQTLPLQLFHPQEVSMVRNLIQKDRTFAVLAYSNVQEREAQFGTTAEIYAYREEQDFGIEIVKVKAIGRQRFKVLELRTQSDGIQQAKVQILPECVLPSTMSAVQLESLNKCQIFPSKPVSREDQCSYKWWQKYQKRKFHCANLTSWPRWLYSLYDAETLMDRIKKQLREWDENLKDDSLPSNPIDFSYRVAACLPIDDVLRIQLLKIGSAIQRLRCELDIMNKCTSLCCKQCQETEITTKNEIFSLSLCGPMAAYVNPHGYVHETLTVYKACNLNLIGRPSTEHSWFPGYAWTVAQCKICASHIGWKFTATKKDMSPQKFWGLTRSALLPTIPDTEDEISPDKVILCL
Experimental: Ability of compound 1 to degrade mutant ENL, which has been implicated to cause Wilms tumor, was evaluated. […] A pcDNA3.1(+)-N-DYK plasmid containing a mutant ENL (mENL) with a short insertion of -NHL- between L117 and R118 was transfected into 5×10^5 HEK293T cells. Upon incubation for 24 h, expression of the FLAG-tagged mENL can be dose-dependently detected with as low as […] of the plasmid (FIG. 7A). Using a FLAG antibody appeared to be less quantitative because of a higher background staining for the control samples (FIGS. 7A-7C, left panels).
With 0.1 μg of the plasmid, compound 1 can efficiently degrade both WT and mutant ENL proteins with Dmax of ˜95% at ˜500 nM upon 24 h incubation (FIG. 7B). […] It was ineffective with […] of the plasmid (not shown), presumably because the rate of mENL synthesis in cells was higher than that of 1-mediated degradation.

Molm-13 cells [5] = experiment: Gene profiling and GSEA in Molm-13 cells; type: cell-based; details: 500 nM
Experimental: Gene profiling was performed to find how compound 1 affects global gene transcriptome. mRNAs from the control and compound 1 (500 nM) treated Molm-13 cells were extracted, purified and sequenced. Bioinformatic analysis was performed to find differentially expressed genes between the treated and control cells, which were used for gene set enrichment analysis (GSEA). […] These clearly indicate that treatment with compound 1 recapitulated ENL knockout with similar patterns of gene expression changes.

[6] = system: AF9, AFF4, cyclin-T1, DOT1L; experiment: Levels of other SEC-related proteins in MV4;11 cells, 4 days (Western blot); type: cell-based; details: nucleus
Description: as §2

[7] = system: AF9, AFF4, cyclin-T1 and H3K79me2; experiment: ChIP-qPCR, AF9, AFF4, cyclin-T1 and H3K79me2 at Myc and HoxA9 gene promoters; type: cell-based; details: 500 nM
Description: as §3

ENL [8] = molecular target: T1, ENL; experiment: Nuclear and cytoplasmic ENL levels in MV4;11 cells, 4 days (Western blot); type: cell-based
Description: Upon treatment of MV4;11 cells with these compounds for 4 days, cytoplasmic and nuclear proteins were separated and subjected to SDS-PAGE/Western blot.

Molm-13 cells [9] = experiment: Anti-proliferative activity, Molm-13 cells; type: cell-based; details: Molm-13 cells, FIG. 6B

C[C@H]1CCCN1Cc1nc2cc(NC(=O)c3ccc4c(cnn4CCCCCCCCNc4cccc5c4C(=O)N(C4CCC(=O)NC4=O)C5=O)c3)ccc2[nH]1 (stereo partly drawn) [Compound 1]
Dmax (maximal degradation), ENL (ENL [1]; 24 h treatment): ~95%
concentration at which ENL is almost depleted (ENL [1]; 24 h treatment): ~500 nM
DC50 (ENL [1]; 24 h treatment, read-out: DC50 (concentration at which a protein is reduced by 50%), ENL): 0.037 µM
concentration of maximal ENL-degrading activity (ENL [1]; FIG. 3D): ~500 nM
concentrations at which ENL level started to recover (hook effect) (ENL [1]; FIG. 3D): 1 to 10 µM
nuclear levels of H3K79 methylation (H3K79 methylation): not consistently affected
ENL levels at Myc and HoxA9 gene promoters (ENL [2]): significantly reduced
overexpression of HoxA11 and HoxA13 (HoxA11 and HoxA13): significantly inhibited overexpression of HoxA11 and HoxA13
expression of MYC (Myc): dose-dependently decreased expression of MYC
body weight [3]: did not cause significant weight losses
hematopoiesis and overt toxicities [3]: did not inhibit normal hematopoiesis or cause other overt toxicities
blood cell counts vs control ([3]; blood test on day-14): no significant differences in blood cell counts
DC50 (ENL [4]): 0.047 µM
Dmax, ENL (ENL [4]): ~88%
Dmax, WT and mutant ENL (mutant ENL (mENL); 0.1 μg plasmid, ~500 nM, 24 h incubation): ~95%
degradation of WT and mutant ENLs (mutant ENL (mENL); 0.2 μg plasmid, 500 nM): reduced efficiency
degradation of WT and mutant ENLs (mutant ENL (mENL); 1 g of the plasmid): ineffective
normalized enrichment score (NES), gene set upregulated upon ENL knockout (Molm-13 cells [5]; 4 days, GSEA panel 1): 7.46
normalized enrichment score (NES), gene set downregulated upon ENL knockout (Molm-13 cells [5]; 4 days, GSEA panel 2): −4.26
transcription of Myc-target genes (Molm-13 cells [5]; GSEA panel 7): significantly downregulated
gene sets regulated by knockdown of MLL-AF9 or -ENL (Molm-13 cells [5]; GSEA panels 3 and 4): significantly up- and down-regulated
expression of HoxA9-regulated genes (Molm-13 cells [5]; GSEA panels 5 and 6): reversed expression patterns
levels of AF9, AFF4, cyclin-T1 and DOT1L [6]: not significantly decreased
AF9, AFF4, cyclin-T1 and H3K79me2 at Myc and HoxA9 gene loci [7]: did not significantly lower down
ENL level in the cytoplasmic extract (ENL [8]): significantly reduced
ENL level in the nucleus (ENL [8]): significantly reduced dose-dependently and almost depleted with 500 nM
time-dependent activity against cell proliferation (Molm-13 cells [9]): did not inhibit cell proliferation during the first 4 days
